This is an account of results in paper PMC12901191, “Detection and pharmacokinetics of licochalcone A in brains of neuroinflammatory mouse model” (Naunyn-Schmiedeberg's Archives of Pharmacology, 2025).

Like-named read-outs stand apart in the source and are kept apart here.

For data set [1], the system named is LPS-neuroinflammatory mouse model. Nature of the data set: Y-maze spontaneous alternation test in LPS-neuroinflammatory mouse model. The class given is in vivo, Swiss albino mice. The method, then: A neuroinflammatory mouse model induced by LPS was developed as described before by Lee et al. ([2008a]). This neuroinflammatory model was well-characterized previously by our research group, showing memory impairment, neuroinflammation, and neurodegenerative changes in the cortex and hippocampus (Zakaria et al. [2016]; Abdel-Kader et al. [2021]; Samir et al. [2023]; Wagdy et al. [2023]). […]
The short-term spatial working memory and exploratory activity of the mice were assessed using the Y-maze spontaneous alteration test, according to the working protocol of Arai et al. ([2001]). […] The sequences of animal’s entries in the arms were recorded. For an entry to be counted, the four paws and the tail of the animal have to be inside the arm. […] Working memory was calculated based on the number of spontaneous alternations, which is defined as successive entries into three distinct arms consecutively without any repeated entry to any of the arms. The results were expressed as “spontaneous alternation percentage” using the equation: % spontaneous alternation = [Spontaneous alternations/(Total number of entries − 2)] × 100.

Data set [2] has the same test system. Nature of the data set: Novel object recognition (NOR) test in LPS-neuroinflammatory mouse model. The note with it: drug control group (saline + LCA 20 mg/kg ip) vs control group. The class given is in vivo, Swiss albino mice. An excerpt:
A neuroinflammatory mouse model induced by LPS was developed as described before by Lee et al. ([2008a]). This neuroinflammatory model was well-characterized previously by our research group, showing memory impairment, neuroinflammation, and neurodegenerative changes in the cortex and hippocampus (Zakaria et al. [2016]; Abdel-Kader et al. [2021]; Samir et al. [2023]; Wagdy et al. [2023]).
(§1) Mice were divided randomly into four groups as follows: (i) control group, mice received vehicle injections (saline followed by DMSO/corn-oil vehicle); (ii) LPS onlygroup, LPS followed by the DMSO/corn-oil vehicle; (iii) treatment group, LPS followed by LCA; and (iv) drug control group, saline followed by LCA. […] This timing also avoids potential direct pharmacological interaction and is consistent with previous post-LPS treatment protocols (Zakaria et al. [2016]; Badshah et al. [2016]).
(§2) The behavioral assessment was performed 24 h after the final dose (day 8), after which all mice were sacrificed, and their brains were collected for subsequent bioanalysis (Fig. 1).
A total number of 40 mice were randomly assigned into four groups (n = 10 per group) before performing the behavioral experiments and kept blinded throughout the study until all data had been collected. The experimental unit in these assays was a single animal, and the primary outcomes were memory and cognitive functions. […]

The nature of data set [3]: Permeability of LCA across BBB: GC-MS/MS detection and quantification in brain tissue after the treatment regimen. The note with it: treated (LPS + LCA) and drug control groups; peak at RT 11.22 min. The class given is in vivo, Swiss albino mice.
Text: as §1, §2
(§3) Mice were sacrificed by cervical dislocation, and their brains were collected and separated from the cerebellum. The collected brains were washed with ice-cold Tris buffer (5 mM, pH 7.4) and then homogenized with 1 mL of the Tris buffer/100 mg brain using the 5-mL Dounce homogenizer. The brain homogenates were stored at − 80 °C till analysis. […] The homogenization included the entire brain components, allowing for a comprehensive analysis of LCA in the samples.
Brain homogenates were removed from the − 80 °C freezer and allowed to come to room temperature. […]
For both qualitative and quantitative analysis on mice brain samples, the MSD was operated in time-segmented MRM mode for the selected transition ions.

Data set [4] can be described thus: Pharmacokinetic study of LCA in mice brain tissues (non-compartmental analysis). In kind it is in vivo, Swiss albino mice. As to the method:
as §3
Brain homogenates were removed from the − 80 °C freezer and allowed to come to room temperature. Brain matrix extraction was performed as described before (Paulke et al. [2006]) with slight modifications. Briefly, in tightly sealed polypropylene tubes, 300 µL brain homogenate was mixed with 300 µL methanol, 200 µL tert-butyl hydroquinone (TBHQ) solution (5 mg/mL), and 200 µL HCl (1 M). The reaction mixture was vortexed for 1 min and inserted into a heat block at 90 °C for 2 h. The reaction tubes were then centrifuged at 3700 × g for 10 min, and the supernatant was collected in micro-centrifuge tubes and transferred for derivatization.
The chosen method for derivatization in this study involves silylation, utilizing the N, O-Bis(trimethylsilyl) trifluoroacetamide (BSTFA) as a silylating agent. The derivatization reaction is employed to produce silyl derivatives of the analyte, which are more volatile and more thermally stable. The reaction replaces active hydrogens with trimethylsilyl groups (TMS) through SN2 nucleophilic attack (Halket and Zaikin [2003]). Extracted samples or reference standards were first placed in a vacuum concentrator for 2 h before performing the derivatization reaction to ensure complete dryness. Dried sample residues were derivatized by adding 150 µL of the mixture of BSTFA and pyridine in a (4:1) ratio into the samples’ tubes. The derivatization reaction was performed at 60 °C for 1 h (Fig. 2). The tubes were centrifuged at 21,460 × g for 1 min and transferred to glass vials suitable for GC–MS/MS analysis.
For pharmacokinetic analysis, 30 adult male Swiss albino mice were randomly divided into six groups (n = 5 for each group), according to sample collection times. […] Mice were sacrificed, and brain tissues were collected after 0, 2, 4, 6, 8, and 24 h post-dosing and were then kept at − 80 °C before sample treatment. Collected brain samples were then extracted and derivatized as described previously and then further analyzed using the GC–MS/MS in MRM mode using the established MRM transitions. Pharmacokinetic parameters were determined by non-compartmental analysis using PK solutions software, version 2.0 (Summit Research Services).

On the set-up of data set [5]: method as in Weng et al. [2019]. The note with it: ref Weng et al. [2019], cited from earlier work.
Where [6] appears, read: male, Swiss albino, mouse, brain, ip, 20 mg/kg.
[7] abbreviates: single ip 20 mg/kg LCA after 7 days LPS, brain tissue, mean ± SD, n = 5.
The mark [8] stands for this setting: intravenous 5 mg/kg single dose.

As for `C=CC(C)(C)c1cc(/C=C/C(=O)c2ccc(O)cc2)c(OC)cc1O` [LCA, (2E)−3-[4-Hydroxy-2-methoxy-5-(2-methylbut-3-en-2-yl)phenyl]−1-(4-hydroxyphenyl)prop-2-en-1-one], the “explorative behavior / spatial short-term memory (spontaneous alternation %, Y-maze)” value in data set [1] (LPS + LCA vs LPS group, LCA 20 mg/kg ip days 4-7, LPS 250 µg/kg ip days 1-7, tested day 8, p < 0.01) was “restored the explorative behavior”. Further, the “spatial short-term memory (Y-maze), LCA alone vs control” value in data set [1] (drug control group (saline + LCA 20 mg/kg ip) vs control group) was “did not show alteration”. Moreover, in data set [2], the “non-spatial memory (NOR), LCA alone vs control” value is reported as “did not show alteration”. The “detection of LCA in brain (passage of BBB)” value in data set [3] was “presence of LCA peak”. In data set [4] (setting [6]), the Tmax was 4 h and the half-life is 17.1 ± 5.98 h. For the same compound, the MRT last in data set [4] (male, Swiss albino, mouse, brain, ip, 20 mg/kg, read-out: MRT0-t) is 10.5 ± 0.69 h. Besides, in data set [4] (setting [7]), the Cl/F was 17.90 ± 5.33 (mg/kg)/h and the Vz/F worked out at 529.74 ± 139.18 mg/kg. Moreover, in data set [4] (single ip 20 mg/kg LCA after 7 days LPS, up to 8 h post-injection), the “concentration in brain tissue until 8 h post-injection” value was “above 15 µg/mg”. In data set [5] (setting [8]), the “Cmax (plasma)” value is 3173.5 ± 483.0 ng/mL and the “Tmax (plasma)” value is 0.0833 h. Besides, in data set [5] (oral 15 mg/kg single dose), the “Cmax (plasma)” value is listed as 60.7 ± 13.9 ng/mL and the “Tmax (plasma)” value is reported as 0.5 h.

As usually defined, the Tmax is the time from dosing to the highest level. As usually defined, the half-life is how long it takes for the measured level to halve. The low end stands for rapid decline, the high end for slow decline.
